From the supplement of paper PMC10307832

What was measured:
Assay in all cases: relative viability (nuclei count vs DMSO), 5 days (fraction); higher = more cells survive
[1] = test system: NCI-H1755
How it was run: (§1)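 Nuclei were stained with Hoechst during a one-step fixation (final 0.05% Triton X-100, 1% formaldehyde, 1 ug/ml Hoechst) carried out 5 days after dosing, then counted on 4× images. The cells, lung cancer lines in 1536-well plates, had been dosed by pin tool the day after seeding with one drug alone or a fixed anchor-drug dose plus five library-drug doses (not always all listed) in √10 steps. Relative viability is the nuclei count in treated wells divided by that in vehicle wells, and each value is the median of duplicate plates.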

[2] = test system: LCLC-103H
How it was run: as §1

[3] = test system: NCI-H460
How it was run: as §1

[4] = test system: HCC-827
How it was run: as §1

[5] = test system: HOP-62
How it was run: as §1

[6] = test system: HARA
How it was run: as §1

[7] = test system: NCI-H23
How it was run: as §1

[8] = test system: NCI-H522
How it was run: as §1

[9] = test system: NCI-H1437
How it was run: as §1

[10] = test system: NCI-H1395
How it was run: as §1

[11] = test system: NCI-H2228
How it was run: as §1

[12] = test system: EMC-BAC-2
How it was run: as §1

[13] = test system: SK-LU-1
How it was run: as §1

[14] = test system: NCI-H727
How it was run: as §1

[15] = test system: NCI-H1792
How it was run: as §1

[16] = test system: SW 1573
How it was run: as §1

[17] = test system: CAL-12T
How it was run: as §1

[18] = test system: COR-L 105
How it was run: as §1

[19] = test system: NCI-H2009
How it was run: as §1

[20] = test system: A-427
How it was run: as §1

[21] = test system: NCI-H1915
How it was run: as §1

With `CCN(CC)CCCCNc1ncc2cc(-c3cc(OC)cc(OC)c3)c(NC(=O)NC(C)(C)C)nc2n1` + CCNC(=O)c1noc(-c2cc(C(C)C)c(O)cc2O)c1-c1ccc(CN2CCOCC2)cc1 [Luminespib] (partner 0.01 µM) the relative viability ([1]; first compound 0.01 µM) was 0.455, the relative viability ([1]; first compound 0.03162 µM) was 0.694 and the relative viability ([1]; first compound 0.1 µM) was 0.458. It also gave a relative viability ([1]; first compound 0.3162 µM) of 0.606, a relative viability ([1]; first compound 1 µM) of 0.44 and a relative viability ([2]; first compound 0.01 µM) of 1.07. The relative viability ([2]; first compound 0.03162 µM) was 1.06, the relative viability ([2]; first compound 0.1 µM) was 0.924 and the relative viability ([2]; first compound 0.3162 µM) was 1.01. For the same molecule, the relative viability ([2]; first compound 1 µM) was 0.739, the relative viability ([3]; first compound 0.01 µM) was 0.0378 and the relative viability ([3]; first compound 0.03162 µM) was 0.0357. It also gave a relative viability ([3]; first compound 0.1 µM) of 0.0341, a relative viability ([3]; first compound 0.3162 µM) of 0.0358 and a relative viability ([3]; first compound 1 µM) of 0.0473. It also gave a relative viability ([4]; first compound 0.01 µM) of 0.675, a relative viability ([4]; first compound 0.03162 µM) of 0.891 and a relative viability ([4]; first compound 0.1 µM) of 0.77. The relative viability ([4]; first compound 0.3162 µM) was 0.774, the relative viability ([4]; first compound 1 µM) was 0.587 and the relative viability ([5]; first compound 0.01 µM) was 1.12. The relative viability ([5]; first compound 0.03162 µM) was 0.986, the relative viability ([5]; first compound 0.1 µM) was 1.02 and the relative viability ([5]; first compound 0.3162 µM) was 0.961. It also gave a relative viability ([5]; first compound 1 µM) of 0.888, a relative viability ([6]; first compound 0.01 µM) of 1.11 and a relative viability ([6]; first compound 0.03162 µM) of 0.896. For the same molecule, the relative viability ([6]; first compound 0.1 µM) was 0.948, the relative viability ([6]; first compound 0.3162 µM) was 0.904 and the relative viability ([6]; first compound 1 µM) was 0.439. It also gave a relative viability ([7]; first compound 0.01 µM) of 0.214, a relative viability ([7]; first compound 0.03162 µM) of 0.203 and a relative viability ([7]; first compound 0.1 µM) of 0.241. It also gave a relative viability ([7]; first compound 0.3162 µM) of 0.202, a relative viability ([7]; first compound 1 µM) of 0.205 and a relative viability ([8]; first compound 0.01 µM) of 1.14. It also gave a relative viability ([8]; first compound 0.03162 µM) of 1.08, a relative viability ([8]; first compound 0.1 µM) of 1.15 and a relative viability ([8]; first compound 0.3162 µM) of 1.13. The relative viability ([8]; first compound 1 µM) was 1.11, the relative viability ([9]; first compound 0.01 µM) was 1.18 and the relative viability ([9]; first compound 0.03162 µM) was 1.1. For the same molecule, the relative viability ([9]; first compound 0.1 µM) was 1.26, the relative viability ([9]; first compound 0.3162 µM) was 1.1 and the relative viability ([9]; first compound 1 µM) was 1.05. For the same molecule, the relative viability ([10]; first compound 0.01 µM) was 0.659, the relative viability ([10]; first compound 0.03162 µM) was 0.878 and the relative viability ([10]; first compound 0.1 µM) was 0.662. For the same molecule, the relative viability ([10]; first compound 0.3162 µM) was 0.65, the relative viability ([10]; first compound 1 µM) was 0.48 and the relative viability ([11]; first compound 0.01 µM) was 0.131. The relative viability ([11]; first compound 0.03162 µM) was 0.109, the relative viability ([11]; first compound 0.1 µM) was 0.173 and the relative viability ([11]; first compound 0.3162 µM) was 0.247. It also gave a relative viability ([11]; first compound 1 µM) of 0.142, a relative viability ([12]; first compound 0.01 µM) of 1.27 and a relative viability ([12]; first compound 0.03162 µM) of 1.16. It also gave a relative viability ([12]; first compound 0.1 µM) of 1.08, a relative viability ([12]; first compound 0.3162 µM) of 1.35 and a relative viability ([12]; first compound 1 µM) of 1.05. It also gave a relative viability ([13]; first compound 0.01 µM) of 0.199, a relative viability ([13]; first compound 0.03162 µM) of 0.197 and a relative viability ([13]; first compound 0.1 µM) of 0.197. The relative viability ([13]; first compound 0.3162 µM) was 0.236, the relative viability ([13]; first compound 1 µM) was 0.168 and the relative viability ([14]; first compound 0.01 µM) was 0.251. For the same molecule, the relative viability ([14]; first compound 0.03162 µM) was 0.323, the relative viability ([14]; first compound 0.1 µM) was 0.28 and the relative viability ([14]; first compound 0.3162 µM) was 0.278. The relative viability ([14]; first compound 1 µM) was 0.327, the relative viability ([15]; first compound 0.01 µM) was 0.38 and the relative viability ([15]; first compound 0.03162 µM) was 0.388. The relative viability ([15]; first compound 0.1 µM) was 0.536, the relative viability ([15]; first compound 0.3162 µM) was 0.37 and the relative viability ([15]; first compound 1 µM) was 0.282. For the same molecule, the relative viability ([16]; first compound 0.01 µM) was 0.238, the relative viability ([16]; first compound 0.03162 µM) was 0.297 and the relative viability ([16]; first compound 0.1 µM) was 0.239. For the same molecule, the relative viability ([16]; first compound 0.3162 µM) was 0.177, the relative viability ([16]; first compound 1 µM) was 0.172 and the relative viability ([17]; first compound 0.01 µM) was 0.63. The relative viability ([17]; first compound 0.03162 µM) was 0.338, the relative viability ([17]; first compound 0.1 µM) was 0.363 and the relative viability ([17]; first compound 0.3162 µM) was 0.445. For the same molecule, the relative viability ([17]; first compound 1 µM) was 0.347, the relative viability ([18]; first compound 0.01 µM) was 0.909 and the relative viability ([18]; first compound 0.03162 µM) was 0.698. It also gave a relative viability ([18]; first compound 0.1 µM) of 0.73, a relative viability ([18]; first compound 0.3162 µM) of 0.795 and a relative viability ([18]; first compound 1 µM) of 0.68. For the same molecule, the relative viability ([19]; first compound 0.01 µM) was 1.15, the relative viability ([19]; first compound 0.03162 µM) was 0.983 and the relative viability ([19]; first compound 0.1 µM) was 1.13. The relative viability ([19]; first compound 0.3162 µM) was 1.1, the relative viability ([19]; first compound 1 µM) was 0.931 and the relative viability ([20]; first compound 0.01 µM) was 1.01. For the same molecule, the relative viability ([20]; first compound 0.03162 µM) was 1.01, the relative viability ([20]; first compound 0.1 µM) was 1.09 and the relative viability ([20]; first compound 0.3162 µM) was 1.03. The relative viability ([20]; first compound 1 µM) was 0.872, the relative viability ([21]; first compound 0.01 µM) was 0.885 and the relative viability ([21]; first compound 0.03162 µM) was 0.863. The relative viability ([21]; first compound 0.1 µM) was 1.02, the relative viability ([21]; first compound 0.3162 µM) was 0.932 and the relative viability ([21]; first compound 1 µM) was 0.711.
